# Results: ChEMBL document CHEMBL4229492, “Design, Synthesis, and Biological Evaluation of Novel 7-[(3 aS,7 aS)-3 a-Aminohexahydropyrano[3,4- c]pyrrol-2(3 H)-yl]-8-methoxyquinolines with Potent Antibacterial Activity against Respiratory Pathogens” (J Med Chem, 2018)
# Key:
# [1] = tested on: Mus musculus; test: Toxicity in Slc:ddY mouse assessed as induction of convulsion at 15 ug/5 uL/mouse administered intracisternally and measured over 30 mins post dose; type: organism-based; conditions: in vivo, other, 0.5 h
# [2] = tested on: Escherichia coli; test: Antibacterial activity against Escherichia coli 5-037042'98 harboring gyrase A Asp87Gly mutation after 18 hrs by two-fold microbroth dilution method; type: functional; conditions: 5-037042'98, 18 h
# [3] = tested on: Mus musculus; test: Toxicity in Slc:ddY mouse assessed as induction of mortality at 50 ug/5 uL/mouse administered intracisternally and measured over 30 mins post dose; type: organism-based; conditions: in vivo, other, 0.5 h
# [4] = tested on: Escherichia coli; test: Antibacterial activity against quinolone-resistant Escherichia coli DNS5101 after 18 hrs by two-fold microbroth dilution method; type: functional; conditions: DNS5101, 18 h
# [5] = tested on: Bacillus spizizenii; test: Antibacterial activity against Bacillus subtilis ATCC 6633 after 18 hrs by two-fold microbroth dilution method; type: functional; conditions: ATCC 6633, 18 h
# [6] = Cmin in cynomolgus monkey serum at 5 mg/kg, iv after 5 mins; type: ADME, organism-based, Macaca fascicularis; conditions: read-out: Cmin
# [7] = tested on: Mus musculus; test: Toxicity in Slc:ddY mouse assessed as induction of mortality at 15 ug/5 uL/mouse administered intracisternally 30 mins after 400 mg/kg, po BPAA dosing and measured over 30 mins post dose; type: organism-based; conditions: in vivo, 0.5 h
# [8] = Metabolic stability in human microsomes at 1 uM assessed as compound remaining after 30 mins; type: ADME, Microsome; conditions: read-out: Stability
# [9] = tested on: Haemophilus influenzae; test: Antibacterial activity against Haemophilus influenzae ATCC 49247 after 18 hrs by two-fold microbroth dilution method; type: functional; conditions: ATCC 49247, 18 h
# [10] = tested on: Mus musculus; test: Toxicity in Slc:ddY mouse assessed as induction of convulsion at 5 ug/5 uL/mouse administered intracisternally and measured over 30 mins post dose; type: organism-based; conditions: in vivo, other, 0.5 h
# [11] = tested on: Streptococcus pneumoniae; test: Antibacterial activity against penicillin-susceptible Streptococcus pneumoniae J41 after 18 hrs by two-fold microbroth dilution method; type: functional; conditions: J41, 18 h
# [12] = biological target: T1, hERG (KCNH2) (Homo sapiens, UniProt Q12809); test: Inhibition of human ERG expressed in CHOK1 cells at 30 uM; type: cell-based; conditions: CHOK1 cells that express human ERG
# T1 sequence (Q12809 whole entry): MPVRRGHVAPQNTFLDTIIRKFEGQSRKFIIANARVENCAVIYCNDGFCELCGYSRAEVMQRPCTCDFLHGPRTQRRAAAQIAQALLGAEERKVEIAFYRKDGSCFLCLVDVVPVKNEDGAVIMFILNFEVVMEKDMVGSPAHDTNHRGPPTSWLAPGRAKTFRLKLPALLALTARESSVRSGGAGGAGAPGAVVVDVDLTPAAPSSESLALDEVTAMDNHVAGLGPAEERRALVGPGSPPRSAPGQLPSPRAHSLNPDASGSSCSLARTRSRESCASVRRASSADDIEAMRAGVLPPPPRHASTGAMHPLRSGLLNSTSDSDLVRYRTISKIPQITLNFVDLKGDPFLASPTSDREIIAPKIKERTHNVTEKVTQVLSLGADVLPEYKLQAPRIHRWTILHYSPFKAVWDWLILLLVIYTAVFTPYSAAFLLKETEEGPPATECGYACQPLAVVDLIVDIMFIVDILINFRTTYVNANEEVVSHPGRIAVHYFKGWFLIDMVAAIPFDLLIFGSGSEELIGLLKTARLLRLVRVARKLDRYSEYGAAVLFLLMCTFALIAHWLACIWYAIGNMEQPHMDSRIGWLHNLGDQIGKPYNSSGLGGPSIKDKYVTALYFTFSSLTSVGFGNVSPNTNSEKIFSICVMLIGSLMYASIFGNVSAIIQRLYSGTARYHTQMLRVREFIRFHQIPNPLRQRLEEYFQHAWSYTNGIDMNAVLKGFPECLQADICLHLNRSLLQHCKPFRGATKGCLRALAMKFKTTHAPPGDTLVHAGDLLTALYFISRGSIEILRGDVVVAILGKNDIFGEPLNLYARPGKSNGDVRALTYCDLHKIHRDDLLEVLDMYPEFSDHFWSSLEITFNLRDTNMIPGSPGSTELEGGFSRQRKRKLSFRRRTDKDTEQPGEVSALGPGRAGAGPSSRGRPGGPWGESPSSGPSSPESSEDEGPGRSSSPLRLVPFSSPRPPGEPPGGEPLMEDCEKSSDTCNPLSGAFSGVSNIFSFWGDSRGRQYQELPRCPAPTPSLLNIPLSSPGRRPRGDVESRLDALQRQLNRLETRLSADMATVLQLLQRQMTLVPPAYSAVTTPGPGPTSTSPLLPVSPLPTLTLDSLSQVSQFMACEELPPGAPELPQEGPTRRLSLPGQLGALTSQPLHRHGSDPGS
# [13] = biological target: T1, hERG (KCNH2); test: Inhibition of human ERG expressed in CHOK1 cells at 100 uM; type: cell-based; conditions: CHOK1 cells that express human ERG
# [14] = tested on: Streptococcus pneumoniae; test: Antibacterial activity against penicillin-resistant Streptococcus pneumoniae 033806 after 18 hrs by two-fold microbroth dilution method; type: functional; conditions: Streptococcus pneumoniae, 033806, 18 h
# [15] = tested on: Staphylococcus aureus; test: Antibacterial activity against Staphylococcus aureus SMITH after 18 hrs by two-fold microbroth dilution method; type: functional
# [16] = tested on: Streptococcus pneumoniae; test: Antibacterial activity against penicillin-susceptible Streptococcus pneumoniae J24 after 18 hrs by two-fold microbroth dilution method; type: functional; conditions: J24, 18 h
# [17] = tested on: Mus musculus; test: Toxicity in Slc:ddY mouse assessed as induction of mortality at 15 ug/5 uL/mouse administered intracisternally and measured over 30 mins post dose; type: organism-based; conditions: in vivo, other, 0.5 h
# [18] = tested on: Enterococcus faecalis; test: Antibacterial activity against Enterococcus faecalis ATCC 19433 after 18 hrs by two-fold microbroth dilution method; type: functional; conditions: ATCC 19433, 18 h
# [19] = tested on: Moraxella catarrhalis; test: Antibacterial activity against Moraxella catarrhalis ATCC 25238 after 18 hrs by two-fold microbroth dilution method; type: functional; conditions: ATCC 25238, 18 h
# [20] = tested on: Mus musculus; test: Toxicity in Slc:ddY mouse assessed as induction of mortality at 5 ug/5 uL/mouse administered intracisternally 30 mins after 400 mg/kg, po BPAA dosing and measured over 30 mins post dose; type: organism-based; conditions: in vivo, 0.5 h
# [21] = tested on: Mus musculus; test: Toxicity in Slc:ddY mouse assessed as induction of mortality at 5 ug/5 uL/mouse administered intracisternally and measured over 30 mins post dose; type: organism-based; conditions: in vivo, other, 0.5 h
# [22] = Drug recovery in cynomolgus monkey urine at 5 mg/kg, iv after 24 hrs; type: ADME, organism-based, Macaca fascicularis; conditions: read-out: Drug recovery
# [23] = tested on: Staphylococcus aureus; test: Antibacterial activity against levofloxacin and methicillin-resistant Staphylococcus aureus 870307 after 18 hrs by two-fold microbroth dilution method; type: functional; conditions: Staphylococcus aureus, 870307, 18 h
# [24] = tested on: Mus musculus; test: Toxicity in Slc:ddY mouse assessed as induction of mortality at 50 ug/5 uL/mouse administered intracisternally 30 mins after 400 mg/kg, po BPAA dosing and measured over 30 mins post dose; type: organism-based; conditions: in vivo, 0.5 h
# [25] = Primary phase half life in cynomolgus monkey serum at 5 mg/kg, iv; type: ADME, organism-based, Macaca fascicularis; conditions: read-out: alphat1/2 (converted)
# [26] = tested on: Staphylococcus aureus; test: Antibacterial activity against levofloxacin and methicillin-resistant Staphylococcus aureus 890325-1 after 18 hrs by two-fold microbroth dilution method; type: functional; conditions: 890325-1, 18 h
# [27] = biological target: CYP3A4 (Homo sapiens, UniProt P08684); test: Inhibition of CYP3A4 in human liver microsomes at 10 uM assessed as remaining activity by measuring 1'-hydroxylation of midazolam after 30 mins; type: ADME; conditions: probe midazolam (1'-hydroxylation), read-out: Activity
# CYP3A4, sequence (P08684 whole entry): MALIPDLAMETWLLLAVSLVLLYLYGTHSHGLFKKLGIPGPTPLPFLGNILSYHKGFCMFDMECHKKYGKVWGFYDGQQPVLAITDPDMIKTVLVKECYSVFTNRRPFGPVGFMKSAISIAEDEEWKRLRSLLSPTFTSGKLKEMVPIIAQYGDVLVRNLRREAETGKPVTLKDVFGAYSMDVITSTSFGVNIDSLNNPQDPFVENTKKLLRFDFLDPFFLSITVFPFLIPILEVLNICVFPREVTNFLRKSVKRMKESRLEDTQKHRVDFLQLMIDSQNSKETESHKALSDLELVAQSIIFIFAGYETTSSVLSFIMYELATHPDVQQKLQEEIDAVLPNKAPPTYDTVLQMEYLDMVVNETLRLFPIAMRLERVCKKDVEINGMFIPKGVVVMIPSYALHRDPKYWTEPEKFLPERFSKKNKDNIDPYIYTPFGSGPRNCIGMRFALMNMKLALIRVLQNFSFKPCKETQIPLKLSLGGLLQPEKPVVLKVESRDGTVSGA
# [28] = Cmax in Crj:CD rat at 5 mg/kg, po; type: ADME, organism-based; set-up: dose 5 mg/kg, route oral; conditions: in vivo
# [29] = tested on: Mus musculus; test: Toxicity in Slc:ddY mouse assessed as induction of convulsion at 15 ug/5 uL/mouse administered intracisternally 30 mins after 400 mg/kg, po BPAA dosing and measured over 30 mins post dose; type: organism-based; conditions: in vivo, 0.5 h
# [30] = tested on: Staphylococcus aureus; test: Antibacterial activity against methicillin-resistant Staphylococcus aureus after 18 hrs by two-fold microbroth dilution method; type: functional
# [31] = AUC (0 to 8 hrs) in Crj:CD rat at 5 mg/kg, po; type: ADME, organism-based; set-up: time < 8 hr, dose 5 mg/kg, route oral; conditions: in vivo
# [32] = AUC (0 to 8 hrs) in cynomolgus monkey serum at 5 mg/kg, iv; type: ADME, organism-based, Macaca fascicularis; set-up: dose 5 mg/kg, time < 8 hr, route intravenous
# [33] = tested on: Klebsiella pneumoniae; test: Antibacterial activity against Klebsiella pneumoniae TYPE 1 after 18 hrs by two-fold microbroth dilution method; type: functional; conditions: TYPE 1, 18 h
# [34] = tested on: Escherichia coli; test: Antibacterial activity against Escherichia coli NIHJ after 18 hrs by two-fold microbroth dilution method; type: functional
# [35] = biological target: Albumin (Homo sapiens, UniProt P02768); test: Binding affinity to human serum albumin after 60 mins at 37 degC by ultrafiltration-based LC-MS analysis; type: ADME; conditions: read-out: PB (converted)
# Albumin, sequence (P02768 whole entry): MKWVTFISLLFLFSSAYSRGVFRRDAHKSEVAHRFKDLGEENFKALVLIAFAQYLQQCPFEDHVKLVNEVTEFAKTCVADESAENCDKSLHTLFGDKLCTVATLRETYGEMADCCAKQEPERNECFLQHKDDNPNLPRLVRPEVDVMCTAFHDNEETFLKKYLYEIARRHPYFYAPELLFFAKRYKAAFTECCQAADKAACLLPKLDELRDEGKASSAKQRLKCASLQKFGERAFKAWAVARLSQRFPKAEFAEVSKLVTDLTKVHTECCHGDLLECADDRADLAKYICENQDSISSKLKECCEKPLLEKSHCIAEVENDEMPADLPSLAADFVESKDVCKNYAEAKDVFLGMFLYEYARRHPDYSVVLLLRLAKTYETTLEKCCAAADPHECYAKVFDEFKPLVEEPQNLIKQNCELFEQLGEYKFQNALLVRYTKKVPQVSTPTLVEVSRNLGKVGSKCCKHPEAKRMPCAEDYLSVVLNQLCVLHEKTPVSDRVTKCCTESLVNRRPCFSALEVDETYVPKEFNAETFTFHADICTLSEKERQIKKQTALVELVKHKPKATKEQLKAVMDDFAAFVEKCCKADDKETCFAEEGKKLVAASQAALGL
# [36] = tested on: Mus musculus; test: Toxicity in Slc:ddY mouse assessed as induction of convulsion at 5 ug/5 uL/mouse administered intracisternally 30 mins after 400 mg/kg, po BPAA dosing and measured over 30 mins post dose; type: organism-based; conditions: in vivo, 0.5 h
# [37] = tested on: Streptococcus pyogenes; test: Antibacterial activity against Streptococcus pyogenes ATCC 12344 after 18 hrs by two-fold microbroth dilution method; type: functional; conditions: ATCC 12344, 18 h
# [38] = tested on: Pseudomonas aeruginosa; test: Antibacterial activity against Pseudomonas aeruginosa PAO1 after 18 hrs by two-fold microbroth dilution method; type: functional; conditions: PAO1, 18 h
compound,measurement,setting,value
COc1c(N2C[C@@H]3CCOC[C@@]3(N)C2)c(F)cc2c(=O)c(C(=O)O)cn([C@@H]3C[C@@H]3F)c12,Activity,[1],Non-Toxic
same,MIC,[2],0.05 µg/mL
same,Activity,[3],Non-Toxic
same,MIC,[4],1.56 µg/mL
same,MIC,[5],0.006 µg/mL
same,concentration at 5 min,[6],7000 ng/mL
same,Activity,[7],Non-Toxic
same,"remaining at 0.5 h, 1 µM",[8],100%
same,MIC,[9],0.006 µg/mL
same,Activity,[10],Non-Toxic
same,MIC,[11],0.05 µg/mL
same,inhibition at 30 µM,[12],-2.2%
same,inhibition at 100 µM,[13],-2.5%
same,MIC,[14],0.12 µg/mL
same,MIC,[15],0.006 µg/mL
same,MIC,[16],0.1 µg/mL
same,Activity,[17],Non-Toxic
same,MIC,[18],0.2 µg/mL
same,MIC,[19],0.025 µg/mL
same,Activity,[20],Non-Toxic
same,Activity,[21],Non-Toxic
same,dose excreted at 24 h,[22],65%
same,MIC,[23],0.2 µg/mL
same,Activity,[24],Non-Toxic
same,half-life,[25],3.5 h
same,MIC,[26],0.2 µg/mL
same,"activity at 0.5 h, 10 µM",[27],97.4%
same,Cmax,[28],880 ng/mL
same,Activity,[29],Non-Toxic
same,MIC,[30],0.008 to 8 µg/mL
same,MIC50,"[30]; Staphylococcus aureus, 18 h",0.015 µg/mL
same,MIC90,"[30]; Staphylococcus aureus, 18 h",0.5 µg/mL
same,AUC(0-t) at 8 h,[31],3140 ng·h/mL
same,AUC(0-t) at 8 h,[32],22900 ng·h/mL
same,MIC,[33],0.05 µg/mL
same,MIC,[34],0.006 µg/mL
same,fraction unbound at 1 h,[35],1
same,Activity,[36],Non-Toxic
same,MIC,[37],0.05 µg/mL
same,MIC,[38],0.78 µg/mL
